Results from article PMC8037182, “Solvothermal Synthesis of Multiple Dihydropyrimidinones at a Time as Inhibitors of Eg5” (Molecules, 2021).

How the values were obtained:
Hela cell line = assay: Cytotoxicity MTS assay, Hela cell line; assay type: cell-based; settings: for OD490 value, Mean / OD490 value, Well 1 / OD490 value, Well 2 / OD490 value, Well 3: Hela cell line, MTS;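 as to OD490 value, Mean: blank control wells received 0.025% DMSO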;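 as to OD490 value, Well 1: blank control wells received 0.025% DMSO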;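 as to OD490 value, Well 2: blank control wells received 0.025% DMSO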;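 as to OD490 value, Well 3: blank control wells received 0.025% DMSO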
Procedure, shortened: (§1)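 Cells seeded at 1000 per well, grown 24 h, then exposed to compound (0.5–100 µM final) for 24 h with 0.025% DMSO blank. MTS reagent added for 2 h at 37 °C, absorbance read at 490 nm; IC50 from non-linear regression of % viability versus concentration, three independent duplicate experiments.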

Caco-2 cell line = assay: Cytotoxicity MTS assay, Caco-2 cell line; assay type: cell-based; settings: for OD490 Mean / OD490 Well 1 / OD490 Well 2 / OD490 Well 3: Caco-2 cell line
Procedure, shortened: as §1

CCOC(=O)c1[nH]c(C2NC(=O)NC(C)=C2C(=O)Nc2ccc(Cl)cc2)c(C(=O)OCC)c1C (centres unmarked) [D7]
OD490 value, Mean (Hela cell line; 0.5μM, first assay): 2.5908
OD490 value, Well 1 (Hela cell line; 0.5μM, first assay): 2.5621
OD490 value, Well 2 (Hela cell line; 0.5μM, first assay): 2.6393
OD490 value, Well 3 (Hela cell line; 0.5μM, first assay): 2.5711
OD490 value, Mean (Hela cell line; 0.5μM, second assay): 2.6768
OD490 value, Well 1 (Hela cell line; 0.5μM, second assay): 2.5588
OD490 value, Well 2 (Hela cell line; 0.5μM, second assay): 2.6974
OD490 value, Well 3 (Hela cell line; 0.5μM, second assay): 2.7741
OD490 value, Mean (Hela cell line; 0.5μM, third assay): 2.6551
OD490 value, Well 1 (Hela cell line; 0.5μM, third assay): 2.6545
OD490 value, Well 2 (Hela cell line; 0.5μM, third assay): 2.6358
OD490 value, Well 3 (Hela cell line; 0.5μM, third assay): 2.6749
OD490 value, Mean (Hela cell line; 1μM, first assay): 2.4582
OD490 value, Well 1 (Hela cell line; 1μM, first assay): 2.4152
OD490 value, Well 2 (Hela cell line; 1μM, first assay): 2.4632
OD490 value, Well 3 (Hela cell line; 1μM, first assay): 2.4962
OD490 value, Mean (Hela cell line; 1μM, second assay): 2.6058
OD490 value, Well 1 (Hela cell line; 1μM, second assay): 2.8624
OD490 value, Well 2 (Hela cell line; 1μM, second assay): 2.6541
OD490 value, Well 3 (Hela cell line; 1μM, second assay): 2.3010
OD490 value, Mean (Hela cell line; 1μM, third assay): 2.6692
OD490 value, Well 1 (Hela cell line; 1μM, third assay): 2.6686
OD490 value, Well 2 (Hela cell line; 1μM, third assay): 2.5980
OD490 value, Well 3 (Hela cell line; 1μM, third assay): 2.7410
OD490 value, Mean (Hela cell line; 10μM, first assay): 2.5790
OD490 value, Well 1 (Hela cell line; 10μM, first assay): 2.7201
OD490 value, Well 2 (Hela cell line; 10μM, first assay): 2.4926
OD490 value, Well 3 (Hela cell line; 10μM, first assay): 2.5244
OD490 value, Mean (Hela cell line; 10μM, second assay): 2.5914
OD490 value, Well 1 (Hela cell line; 10μM, second assay): 2.3698
OD490 value, Well 2 (Hela cell line; 10μM, second assay): 2.8523
OD490 value, Well 3 (Hela cell line; 10μM, second assay): 2.5521
OD490 value, Mean (Hela cell line; 10μM, third assay): 2.6067
OD490 value, Well 1 (Hela cell line; 10μM, third assay): 2.5657
OD490 value, Well 2 (Hela cell line; 10μM, third assay): 2.6845
OD490 value, Well 3 (Hela cell line; 10μM, third assay): 2.5698
OD490 value, Mean (Hela cell line; 25μM, first assay): 2.6458
OD490 value, Well 1 (Hela cell line; 25μM, first assay): 2.7056
OD490 value, Well 2 (Hela cell line; 25μM, first assay): 2.6228
OD490 value, Well 3 (Hela cell line; 25μM, first assay): 2.6091
OD490 value, Mean (Hela cell line; 25μM, second assay): 2.6325
OD490 value, Well 1 (Hela cell line; 25μM, second assay): 2.5901
OD490 value, Well 2 (Hela cell line; 25μM, second assay): 2.6301
OD490 value, Well 3 (Hela cell line; 25μM, second assay): 2.6774
OD490 value, Mean (Hela cell line; 25μM, third assay): 2.6849
OD490 value, Well 1 (Hela cell line; 25μM, third assay): 2.6987
OD490 value, Well 2 (Hela cell line; 25μM, third assay): 2.6457
OD490 value, Well 3 (Hela cell line; 25μM, third assay): 2.7102
OD490 value, Mean (Hela cell line; 50μM, first assay): 2.4563
OD490 value, Well 1 (Hela cell line; 50μM, first assay): 2.5239
OD490 value, Well 2 (Hela cell line; 50μM, first assay): 2.4847
OD490 value, Well 3 (Hela cell line; 50μM, first assay): 2.3602
OD490 value, Mean (Hela cell line; 50μM, second assay): 2.2166
OD490 value, Well 1 (Hela cell line; 50μM, second assay): 2.3365
OD490 value, Well 2 (Hela cell line; 50μM, second assay): 2.0124
OD490 value, Well 3 (Hela cell line; 50μM, second assay): 2.3010
OD490 value, Mean (Hela cell line; 50μM, third assay): 2.4441
OD490 value, Well 1 (Hela cell line; 50μM, third assay): 2.4565
OD490 value, Well 2 (Hela cell line; 50μM, third assay): 2.6544
OD490 value, Well 3 (Hela cell line; 50μM, third assay): 2.2214
OD490 value, Mean (Hela cell line; 100μM, first assay): 1.9660
OD490 value, Well 1 (Hela cell line; 100μM, first assay): 1.8876
OD490 value, Well 2 (Hela cell line; 100μM, first assay): 1.9083
OD490 value, Well 3 (Hela cell line; 100μM, first assay): 2.1021
OD490 value, Mean (Hela cell line; 100μM, second assay): 1.8447
OD490 value, Well 1 (Hela cell line; 100μM, second assay): 1.6754
OD490 value, Well 2 (Hela cell line; 100μM, second assay): 1.8601
OD490 value, Well 3 (Hela cell line; 100μM, second assay): 1.9987
OD490 value, Mean (Hela cell line; 100μM, third assay): 1.9092
OD490 value, Well 1 (Hela cell line; 100μM, third assay): 1.9698
OD490 value, Well 2 (Hela cell line; 100μM, third assay): 1.9033
OD490 value, Well 3 (Hela cell line; 100μM, third assay): 1.8546
IC50 (Hela cell line; MTS assay, 24 h exposure): > 150 µM
OD490 Mean (Caco-2 cell line; 0.5μM, first assay): 0.5690
OD490 Well 1 (Caco-2 cell line; 0.5μM, first assay): 0.5534
OD490 Well 2 (Caco-2 cell line; 0.5μM, first assay): 0.6352
OD490 Well 3 (Caco-2 cell line; 0.5μM, first assay): 0.5185
OD490 Mean (Caco-2 cell line; 0.5μM, second assay): 0.6172
OD490 Well 1 (Caco-2 cell line; 0.5μM, second assay): 0.6374
OD490 Well 2 (Caco-2 cell line; 0.5μM, second assay): 0.6303
OD490 Well 3 (Caco-2 cell line; 0.5μM, second assay): 0.5839
OD490 Mean (Caco-2 cell line; 0.5μM, third assay): 0.5837
OD490 Well 1 (Caco-2 cell line; 0.5μM, third assay): 0.6634
OD490 Well 2 (Caco-2 cell line; 0.5μM, third assay): 0.5231
OD490 Well 3 (Caco-2 cell line; 0.5μM, third assay): 0.5647
OD490 Mean (Caco-2 cell line; 1μM, first assay): 0.5311
OD490 Well 1 (Caco-2 cell line; 1μM, first assay): 0.5419
OD490 Well 2 (Caco-2 cell line; 1μM, first assay): 0.5318
OD490 Well 3 (Caco-2 cell line; 1μM, first assay): 0.5197
OD490 Mean (Caco-2 cell line; 1μM, second assay): 0.5625
OD490 Well 1 (Caco-2 cell line; 1μM, second assay): 0.5454
OD490 Well 2 (Caco-2 cell line; 1μM, second assay): 0.5593
OD490 Well 3 (Caco-2 cell line; 1μM, second assay): 0.5827
OD490 Mean (Caco-2 cell line; 1μM, third assay): 0.5540
OD490 Well 1 (Caco-2 cell line; 1μM, third assay): 0.5665
OD490 Well 2 (Caco-2 cell line; 1μM, third assay): 0.5741
OD490 Well 3 (Caco-2 cell line; 1μM, third assay): 0.5214
OD490 Mean (Caco-2 cell line; 10μM, first assay): 0.5404
OD490 Well 1 (Caco-2 cell line; 10μM, first assay): 0.5519
OD490 Well 2 (Caco-2 cell line; 10μM, first assay): 0.5485
OD490 Well 3 (Caco-2 cell line; 10μM, first assay): 0.5208
OD490 Mean (Caco-2 cell line; 10μM, second assay): 0.5334
OD490 Well 1 (Caco-2 cell line; 10μM, second assay): 0.5402
OD490 Well 2 (Caco-2 cell line; 10μM, second assay): 0.5543
OD490 Well 3 (Caco-2 cell line; 10μM, second assay): 0.5057
OD490 Mean (Caco-2 cell line; 10μM, third assay): 0.5421
OD490 Well 1 (Caco-2 cell line; 10μM, third assay): 0.5552
OD490 Well 2 (Caco-2 cell line; 10μM, third assay): 0.5101
OD490 Well 3 (Caco-2 cell line; 10μM, third assay): 0.5610
OD490 Mean (Caco-2 cell line; 25μM, first assay): 0.5145
OD490 Well 1 (Caco-2 cell line; 25μM, first assay): 0.5041
OD490 Well 2 (Caco-2 cell line; 25μM, first assay): 0.5114
OD490 Well 3 (Caco-2 cell line; 25μM, first assay): 0.5279
OD490 Mean (Caco-2 cell line; 25μM, second assay): 0.5117
OD490 Well 1 (Caco-2 cell line; 25μM, second assay): 0.548
OD490 Well 2 (Caco-2 cell line; 25μM, second assay): 0.4698
OD490 Well 3 (Caco-2 cell line; 25μM, second assay): 0.5172
OD490 Mean (Caco-2 cell line; 25μM, third assay): 0.5181
OD490 Well 1 (Caco-2 cell line; 25μM, third assay): 0.5221
OD490 Well 2 (Caco-2 cell line; 25μM, third assay): 0.5321
OD490 Well 3 (Caco-2 cell line; 25μM, third assay): 0.5000
OD490 Mean (Caco-2 cell line; 50μM, first assay): 0.4389
OD490 Well 1 (Caco-2 cell line; 50μM, first assay): 0.5283
OD490 Well 2 (Caco-2 cell line; 50μM, first assay): 0.4168
OD490 Well 3 (Caco-2 cell line; 50μM, first assay): 0.3716
OD490 Mean (Caco-2 cell line; 50μM, second assay): 0.4826
OD490 Well 1 (Caco-2 cell line; 50μM, second assay): 0.5209
OD490 Well 2 (Caco-2 cell line; 50μM, second assay): 0.4937
OD490 Well 3 (Caco-2 cell line; 50μM, second assay): 0.4332
OD490 Mean (Caco-2 cell line; 50μM, third assay): 0.4437
OD490 Well 1 (Caco-2 cell line; 50μM, third assay): 0.5112
OD490 Well 2 (Caco-2 cell line; 50μM, third assay): 0.4213
OD490 Well 3 (Caco-2 cell line; 50μM, third assay): 0.3987
OD490 Mean (Caco-2 cell line; 100μM, first assay): 0.3891
OD490 Well 1 (Caco-2 cell line; 100μM, first assay): 0.3713
OD490 Well 2 (Caco-2 cell line; 100μM, first assay): 0.3955
OD490 Well 3 (Caco-2 cell line; 100μM, first assay): 0.4006
OD490 Mean (Caco-2 cell line; 100μM, second assay): 0.4527
OD490 Well 1 (Caco-2 cell line; 100μM, second assay): 0.4755
OD490 Well 2 (Caco-2 cell line; 100μM, second assay): 0.4428
OD490 Well 3 (Caco-2 cell line; 100μM, second assay): 0.4398
OD490 Mean (Caco-2 cell line; 100μM, third assay): 0.3973
OD490 Well 1 (Caco-2 cell line; 100μM, third assay): 0.4012
OD490 Well 2 (Caco-2 cell line; 100μM, third assay): 0.4123
OD490 Well 3 (Caco-2 cell line; 100μM, third assay): 0.3785
IC50 (Caco-2 cell line; MTS assay, 24 h exposure): 81.9 µM
